Measured values taken from ChEMBL document CHEMBL1201862, “PubChem BioAssay data set” (2004).
Active and inactive are the calls of the source.

Tests used:
[1] = viability of uninfected HEp-2 cells – cell-based, HTS, cytotoxicity control for RSV inhibitor project, dose response (AID 2410); format: functional; settings: human respiratory syncytial virus
[2] = tested on: H9c2; experiment: cells; format: functional, cell-based; settings: Rattus norvegicus, H9c2, Myocardium;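 note: confirmatory concentration-response retest of ultra-high-throughput screening hits for modulation of myocardial damage; cell death induced by hydrogen peroxide oxidative stress; compound pretreatment for 60 min then peroxide exposure for 2 h; potency is for protecting the cells against peroxide damage rather than for killing them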
[3] = target: T1, Sentrin-specific protease 6 (Homo sapiens, UniProt Q9GZR1); format: functional;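 note: Luminescence-based dose-response confirmatory assay of SENP6 inhibition, following up an ultra-high-throughput screen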
T1 sequence (Q9GZR1 whole entry): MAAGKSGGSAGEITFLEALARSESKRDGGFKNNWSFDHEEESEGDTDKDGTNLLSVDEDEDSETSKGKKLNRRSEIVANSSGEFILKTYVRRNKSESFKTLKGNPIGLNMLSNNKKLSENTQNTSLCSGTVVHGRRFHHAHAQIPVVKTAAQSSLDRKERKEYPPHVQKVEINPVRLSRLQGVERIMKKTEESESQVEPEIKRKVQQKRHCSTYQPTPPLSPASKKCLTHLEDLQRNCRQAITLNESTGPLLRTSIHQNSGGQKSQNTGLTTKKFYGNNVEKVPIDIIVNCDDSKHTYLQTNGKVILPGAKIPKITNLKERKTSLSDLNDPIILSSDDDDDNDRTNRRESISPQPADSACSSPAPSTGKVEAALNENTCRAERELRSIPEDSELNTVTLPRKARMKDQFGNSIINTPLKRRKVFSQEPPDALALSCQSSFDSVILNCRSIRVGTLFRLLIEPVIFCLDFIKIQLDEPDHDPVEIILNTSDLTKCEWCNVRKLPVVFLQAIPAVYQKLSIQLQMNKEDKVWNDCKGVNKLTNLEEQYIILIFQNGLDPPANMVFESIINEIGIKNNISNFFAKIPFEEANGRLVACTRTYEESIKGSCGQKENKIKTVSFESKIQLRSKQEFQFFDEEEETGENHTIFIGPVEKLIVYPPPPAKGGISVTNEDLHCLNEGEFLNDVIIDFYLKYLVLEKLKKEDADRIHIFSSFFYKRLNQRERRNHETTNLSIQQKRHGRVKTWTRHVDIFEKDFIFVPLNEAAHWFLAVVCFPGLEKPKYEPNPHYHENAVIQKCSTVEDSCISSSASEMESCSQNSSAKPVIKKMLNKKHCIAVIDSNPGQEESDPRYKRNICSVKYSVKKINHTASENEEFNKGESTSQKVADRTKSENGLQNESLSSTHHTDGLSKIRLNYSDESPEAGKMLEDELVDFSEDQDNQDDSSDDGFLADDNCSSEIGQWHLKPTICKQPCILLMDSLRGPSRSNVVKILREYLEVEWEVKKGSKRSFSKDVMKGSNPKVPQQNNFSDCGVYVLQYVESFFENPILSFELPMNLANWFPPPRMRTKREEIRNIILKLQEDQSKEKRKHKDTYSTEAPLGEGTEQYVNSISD

[4] = target: T2, Sentrin-specific protease 7 (Homo sapiens, UniProt Q9BQF6); format: functional;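 note: Luminescence-based dose-response confirmation of ultra-high-throughput screening hits, measuring inhibition of SENP7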
T2 sequence (Q9BQF6 whole entry): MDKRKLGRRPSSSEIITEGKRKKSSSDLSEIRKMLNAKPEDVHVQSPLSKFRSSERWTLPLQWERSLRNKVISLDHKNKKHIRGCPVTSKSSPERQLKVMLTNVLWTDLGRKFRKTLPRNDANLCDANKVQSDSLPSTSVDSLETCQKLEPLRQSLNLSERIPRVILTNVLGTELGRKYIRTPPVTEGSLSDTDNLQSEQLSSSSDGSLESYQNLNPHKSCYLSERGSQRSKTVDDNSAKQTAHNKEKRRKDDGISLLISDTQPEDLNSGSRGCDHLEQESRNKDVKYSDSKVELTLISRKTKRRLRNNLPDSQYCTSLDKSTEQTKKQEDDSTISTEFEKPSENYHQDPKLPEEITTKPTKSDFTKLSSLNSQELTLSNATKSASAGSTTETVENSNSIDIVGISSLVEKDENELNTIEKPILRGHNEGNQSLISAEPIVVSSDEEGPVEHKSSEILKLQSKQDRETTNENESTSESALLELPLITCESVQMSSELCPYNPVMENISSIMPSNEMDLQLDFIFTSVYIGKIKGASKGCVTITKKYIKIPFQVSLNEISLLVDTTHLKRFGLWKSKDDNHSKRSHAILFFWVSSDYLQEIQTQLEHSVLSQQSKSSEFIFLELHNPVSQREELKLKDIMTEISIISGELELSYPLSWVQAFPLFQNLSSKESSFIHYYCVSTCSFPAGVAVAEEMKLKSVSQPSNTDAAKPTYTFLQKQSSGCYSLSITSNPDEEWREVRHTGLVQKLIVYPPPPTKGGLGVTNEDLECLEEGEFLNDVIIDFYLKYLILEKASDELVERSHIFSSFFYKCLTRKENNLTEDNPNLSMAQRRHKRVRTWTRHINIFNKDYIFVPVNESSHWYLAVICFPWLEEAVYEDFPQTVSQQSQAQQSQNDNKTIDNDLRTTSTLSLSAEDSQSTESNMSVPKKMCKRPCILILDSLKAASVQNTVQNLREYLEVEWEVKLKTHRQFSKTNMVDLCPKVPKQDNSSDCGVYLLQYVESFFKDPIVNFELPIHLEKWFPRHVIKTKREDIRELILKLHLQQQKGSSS

[5] = target: T3, Sentrin-specific protease 8 (Homo sapiens, UniProt Q96LD8); format: functional;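 note: luminescence read-out of SENP8 inhibition, dose-response confirmation following an ultra-high-throughput screen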
T3 sequence (Q96LD8 whole entry): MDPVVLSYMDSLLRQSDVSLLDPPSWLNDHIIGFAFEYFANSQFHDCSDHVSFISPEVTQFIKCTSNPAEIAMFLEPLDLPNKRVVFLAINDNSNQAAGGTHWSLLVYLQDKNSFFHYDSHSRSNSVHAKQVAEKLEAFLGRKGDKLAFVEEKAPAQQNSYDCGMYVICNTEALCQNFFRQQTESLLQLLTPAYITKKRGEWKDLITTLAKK

[6] = target: T4, Caspase-3 (Homo sapiens, UniProt P42574); format: functional;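 note: Dose-response selectivity test against caspase-3 for candidate inhibitors of sentrin-specific proteases (SENPs)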
T4 sequence (P42574 whole entry): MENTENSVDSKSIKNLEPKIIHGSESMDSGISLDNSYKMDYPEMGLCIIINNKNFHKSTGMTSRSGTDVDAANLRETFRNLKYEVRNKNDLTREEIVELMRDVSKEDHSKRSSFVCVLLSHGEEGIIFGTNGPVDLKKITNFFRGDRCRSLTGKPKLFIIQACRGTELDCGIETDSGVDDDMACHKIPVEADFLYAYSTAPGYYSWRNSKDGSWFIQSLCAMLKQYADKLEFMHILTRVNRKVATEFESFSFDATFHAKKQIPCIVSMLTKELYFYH

[7] = tested on: SN12K1; experiment: cells; format: functional; settings: Homo sapiens
[8] = tested on: P388/ADR; experiment: cells; format: functional; settings: Mus musculus
[9] = tested on: P388; experiment: cells; format: functional; settings: Mus musculus
[10] = target: T5, Heat shock factor protein 1 (Mus musculus, UniProt P38532); experiment: enhancement of HSF1-driven luciferase signal – cell-based, NIH3T3, luminescence, dose retest, confirmation (AID 435004); format: functional;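 note: stress induced by proteasome inhibitor MG132 added 30 min after compound; luciferase reporter driven by HSF1 response element in NIH3T3 cells; actives raise luminescence as potentiators of the MG132 stress response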
T5 sequence (P38532 whole entry): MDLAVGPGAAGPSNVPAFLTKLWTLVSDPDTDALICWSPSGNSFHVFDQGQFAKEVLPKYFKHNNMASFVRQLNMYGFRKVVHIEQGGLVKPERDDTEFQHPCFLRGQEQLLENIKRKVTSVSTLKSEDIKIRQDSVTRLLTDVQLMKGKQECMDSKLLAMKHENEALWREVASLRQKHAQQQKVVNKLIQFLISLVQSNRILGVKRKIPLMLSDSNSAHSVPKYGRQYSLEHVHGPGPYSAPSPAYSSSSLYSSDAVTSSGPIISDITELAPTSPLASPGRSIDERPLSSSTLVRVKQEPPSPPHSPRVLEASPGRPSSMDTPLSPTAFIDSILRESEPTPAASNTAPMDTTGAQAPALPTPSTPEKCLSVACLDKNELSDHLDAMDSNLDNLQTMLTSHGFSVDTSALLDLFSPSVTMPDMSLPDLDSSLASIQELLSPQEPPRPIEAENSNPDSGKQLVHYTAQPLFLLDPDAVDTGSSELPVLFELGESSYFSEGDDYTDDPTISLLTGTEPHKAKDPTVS

[11] = tested on: Vero; experiment: viability of Vero cells under compound – cytotoxicity control for flavivirus capping enzyme inhibitors (AID 588742); format: functional; settings: Chlorocebus sabaeus
[12] = target: T6, Rac GTPase-activating protein 1 (Homo sapiens, UniProt Q9H0H5); experiment: blockers of MgcRacGAP-driven Rac1 GTP hydrolysis – biochemical, ADP Hunter fluorescence, primary and confirmatory, confirmation (AID 624330); format: functional
T6 sequence (Q9H0H5 whole entry): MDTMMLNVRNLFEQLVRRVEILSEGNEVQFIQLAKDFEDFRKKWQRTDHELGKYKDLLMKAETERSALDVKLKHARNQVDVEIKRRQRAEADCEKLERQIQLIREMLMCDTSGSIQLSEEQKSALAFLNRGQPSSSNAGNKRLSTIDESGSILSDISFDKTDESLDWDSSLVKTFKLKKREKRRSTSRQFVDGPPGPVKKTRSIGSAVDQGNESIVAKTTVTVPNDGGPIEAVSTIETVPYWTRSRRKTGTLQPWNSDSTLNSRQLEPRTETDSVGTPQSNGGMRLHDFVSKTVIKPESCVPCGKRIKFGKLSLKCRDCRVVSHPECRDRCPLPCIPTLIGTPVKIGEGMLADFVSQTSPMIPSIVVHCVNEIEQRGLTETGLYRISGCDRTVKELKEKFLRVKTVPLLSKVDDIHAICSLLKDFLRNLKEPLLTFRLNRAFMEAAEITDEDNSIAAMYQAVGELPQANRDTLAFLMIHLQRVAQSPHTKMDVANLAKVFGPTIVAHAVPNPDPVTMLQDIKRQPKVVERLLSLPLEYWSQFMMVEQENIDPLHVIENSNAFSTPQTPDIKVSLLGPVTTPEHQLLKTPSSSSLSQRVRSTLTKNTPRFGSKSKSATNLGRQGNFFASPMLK

[13] = target: T7, Mannose-6-phosphate isomerase (Homo sapiens, UniProt P34949); experiment: MPI inhibition at elevated mannose 6-phosphate – biochemical, fluorescence intensity, high mannose 6-phosphate, primary screen (AID 1220)
T7 sequence (P34949 whole entry): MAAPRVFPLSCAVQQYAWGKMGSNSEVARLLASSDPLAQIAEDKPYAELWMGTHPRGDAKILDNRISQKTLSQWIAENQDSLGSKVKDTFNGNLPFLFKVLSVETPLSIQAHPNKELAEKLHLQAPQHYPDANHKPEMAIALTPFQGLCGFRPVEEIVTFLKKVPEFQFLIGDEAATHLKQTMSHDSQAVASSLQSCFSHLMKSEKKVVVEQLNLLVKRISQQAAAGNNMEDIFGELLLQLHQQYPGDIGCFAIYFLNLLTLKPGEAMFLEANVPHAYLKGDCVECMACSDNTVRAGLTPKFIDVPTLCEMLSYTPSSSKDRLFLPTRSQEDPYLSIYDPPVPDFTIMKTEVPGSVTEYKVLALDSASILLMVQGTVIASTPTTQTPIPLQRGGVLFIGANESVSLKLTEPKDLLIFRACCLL

Compound | IC50 [2] | GI50 [7] | GI50 [8] | GI50 [9] | also measured
c1cncc(-c2nc(NCC3COc4ccccc4O3)c3ccccc3n2)c1 (stereo not drawn) | > 79 µM (inactive) | – | – | – | CC50 [1]: 10.2 µM (active)
Cc1ccc(C(=O)COC(=O)c2ccc(Cl)c(N)c2)s1 | – | – | – | – | IC50 [3]: 17.4 µM (active); IC50 [4]: 5.51 µM (active); IC50 [5]: 23.1 µM (active); IC50 [6]: 15 µM (active)
O=C(/C=C/c1ccc(Cl)c([N+](=O)[O-])c1)Nc1cccnc1 | > 79 µM (inactive) | – | – | – | –
COc1ccc(Cl)cc1NC(=O)CCS(=O)(=O)c1cc2c(cc1C)NC(=O)CO2 | > 79 µM (inactive) | – | – | – | –
O=C(CN1CCN(Cc2ccccc2)CC1)Nc1ccc([N+](=O)[O-])cc1C(=O)Nc1ccccc1F | > 79 µM (inactive) | – | – | – | –
O=C(Nc1ccc(C2=NCCN2)cc1)c1cncc(C(=O)Nc2ccc(C3=NCCN3)cc2)c1 | – | > 100 µM (inactive) | > 100 µM (inactive) | 24.2 µM (inactive) | –
Cc1cc(C)n2nc(C(=O)N/N=C/c3c4ccccc4cc4ccccc34)nc2n1 | > 79 µM (inactive) | – | – | – | EC50 [10]: > 260 µM (inactive)
CCC1CN2CCC1CC2 (stereo not drawn) | – | > 100 µM (inactive) | > 100 µM (inactive) | 80.4 µM (inactive) | –
COc1ccc(C(=O)O/N=C(/c2ccccc2)c2ccncc2)cc1OC | 6.72 µM (active) | – | – | – | –
C[C@H]1[C@@H]2C[C@@H]3O[C@@]34[C@H]3CCC5Cc6nc7c(nc6C[C@@]5(C)[C@]3(O)CC(=O)[C@@]24CO[C@]12OC(C)(C)C[C@@H]2O)CC1CC[C@@H]2C3=C[C@H]4O[C@@]5(OC(C)(CO)C[C@@H]5O)[C@H](C)[C@@]4(O)[C@]3(C)[C@@H](O)CC2[C@]1(C)C7 (stereo partly drawn) | – | 0.00221 µM (active) | 0.0718 µM (active) | 0.0017 µM (active) | –
COc1ccc2c(c1)-c1nc(/N=C/c3ccccc3O)sc1CC2 | – | – | – | – | CC50 [11]: > 40 µM (active); IC50 [12]: 20 µM (active); IC50 [13]: > 50 µM (not active)
COC(=O)[C@@H]1c2cc3c(c(O)c2[C@@H](OC)C[C@@]1(C)O)C(=O)c1c(O)cc2c(c1C3=O)OC1O[C@@]2(C)[C@H](O)[C@@H](N(C)C)[C@@H]1O | – | 0.352 µM (active) | 1.29 µM (inactive) | 0.092 µM (active) | –
Cn1c2ccccc2c(=O)c2c(O)cc3c(c21)C=CC(C)(C)O3 [NORACRONYCINE] | – | > 25 µM (inactive) | > 25 µM (inactive) | > 25 µM (inactive) | –
O=C(O)CCCCCCCCC(=O)O [SEBACIC ACID] | – | > 500 µM (inactive) | > 500 µM (inactive) | 316 µM (inactive) | –
